This is an account of results in publication PMC6469224, “Tuning the properties of tris(hydroxypyridinone) ligands: efficient ^68Ga chelators for PET imaging” (Dalton Transactions (Cambridge, England : 2003), 2019).

Where two headings read alike, the source gives them in different places.

For data set [1] the following is noted: cited from earlier work.
The conditions of data set [2]: cited from earlier work. This is another data set of the same source.
Data set [3] in a line: Spectrophotometric titration, acid dissociation constants. The format is physicochemical. As for the experimental part: (§1) The THP^Me and THP^H acid dissociation and conditional formation constants for their Ga^3+ and Fe^3+ complexes were investigated by spectrophotometric measurements. pKa and pM values (defined as –log[M^3+] when [ligand]total = 10 μM, [metal]total = 1 μM and pH = 7.4) are reported in Table 2. A full list of the measured conditional formation constants is provided in the ESI (Tables S1–S3 ^†), together with speciation plots calculated for the pH range of the titration. The pKa values for THP chelators are better described as intrinsic protonation constants since they represent the average pKa values of the three hydroxypyridinone units, which could not be distinguished by UV spectrophotometric measurements.[45] The first intrinsic pKa is attributed to the carbonyl group of the HP unit, and the second to the adjacent hydroxyl group. For THP^H a third intrinsic protonation constant, pKa3, associated with deprotonation of the N^1–H group in the pyridinone ring, exists outside the pH range used. The value of pKa3 was estimated to be 13 from the spectral change of the [Fe(THP^H)] complex in the pH 10–12.5 range. The measured protonation constants for THP^H are lower than those measured for deferiprone, but slightly higher than those for THP^Me (that is, THP^Me is slightly more acidic than THP^H).
The automated titration system consists of a Metrohm 765 Dosimat autoburette, a Mettler Toledo MP230 pH meter with SENTEK pH electrode (P11), and an HP 8453 UV-visible spectrophotometer with a Hellem quartz flow cuvette, with circulation driven by a Gilson Mini-plus #3 pump (speed capability 20 mL min^–1). A potassium chloride electrolyte solution (0.1 M) was used to maintain the ionic strength. The temperature of the test solutions was maintained in a thermostatic jacketed titration vessel at 25 ± 0.1 °C, using a Fisherbrand Isotemp water bath. The pH electrodes were calibrated using the software GLEE[47] with data obtained by titrating a volumetric standard HCl (0.1 M) in KCl (0.1 M) with KOH (0.1 M) under an atmosphere of argon. Analytical grade reagent materials were used in the preparation of all solutions. The solution under investigation was stirred vigorously during the experiment. For pKa determinations, a cuvette path length of 10 mm was used, while for metal stability constants determinations, a cuvette path length of 50 mm was used (experimental concentration was ca. 40 μM for iron complexes and ca. 10 μM for gallium complexes). All instruments were interfaced to a computer and controlled by an in-house program.
The automated titration adopted the following strategy: the pH of a solution was increased in increments of 0.1 pH unit by the addition of potassium hydroxide solution (0.1 M) from the autoburette. The pH readings were judged stable if they varied by less than 0.01 pH unit after a pre-set incubation period. […] The cycle was repeated until the predefined end point pH value was achieved. Titration data were analysed with the HypSpec2014 program[48],[49] […] The fitting spectra range for iron complexes was 400–700 nm while that for gallium complexes was 250–350 nm. pH values higher than 11.3 (outside the pH range in which electrode measurements are considered accurate) were neglected and re-calculated from the added KOH quantity (using “no pH” mode within the HypSpec2014 program). […] Metal affinities of compounds in this study were determined in competition with the metal hydrolysis species in a solution at a high pH (titrated up to pH 12.5). […]

For another data set, the system named is mouse. In words: In vivo ^68Ga scavenging: acetate-buffered ^68Ga injected, then chelator; PET/CT and urine HPLC. To be noted: female BALB/c mouse, THPMe at 45 minutes. As for the experimental part:
The ability of THP^H to scavenge gallium in vivo was also investigated. […] This scavenging ability, shared with THP^Me (ESI, Fig. S8 ^†), reflects the rapid complexation kinetics and the extraordinary ability to transchelate gallium (which is known to bind rapidly and almost completely to transferrin when intravenously injected[44]) rapidly in the biological milieu.
All in vivo experiments were carried out in accordance with British Home Office regulations governing animal experimentation and complied with guidelines on responsibility in the use of animals in bioscience research of the U.K. Research Councils and Medical Research Charities, under U.K. Home Office project and personal licences. […] Respiration rate and bed temperature were monitored throughout. […] All reconstructed datasets were analysed using VivoQuant 1.21 software (inviCRO), which enables the co-registration of PET and CT images and the delineation of regions of interest (ROIs) for quantification of activity in specific organs. […] Urine was collected and analysed by reversed-phase HPLC (method 3).
An E&Z generator was eluted with 5 mL of pure HCl 0.1 M (Fluka analytical) in five 1 mL fractions and their activity measured by a Capintec radionuclide dose calibrator. […]
Quantitative radiolabelling was obtained for all examined concentrations. […]

Data set [4] can be described thus: Spectrophotometric determination of conditional formation constants, Ga^3+ complexes. The data set is classed as binding. The protocol: as §1
(§2) The automated titration system consists of a Metrohm 765 Dosimat autoburette, a Mettler Toledo MP230 pH meter with SENTEK pH electrode (P11), and an HP 8453 UV-visible spectrophotometer with a Hellem quartz flow cuvette, with circulation driven by a Gilson Mini-plus #3 pump (speed capability 20 mL min^–1). A potassium chloride electrolyte solution (0.1 M) was used to maintain the ionic strength. The temperature of the test solutions was maintained in a thermostatic jacketed titration vessel at 25 ± 0.1 °C, using a Fisherbrand Isotemp water bath. […]
(§3) The automated titration adopted the following strategy: the pH of a solution was increased in increments of 0.1 pH unit by the addition of potassium hydroxide solution (0.1 M) from the autoburette. The pH readings were judged stable if they varied by less than 0.01 pH unit after a pre-set incubation period. […] Titration data were analysed with the HypSpec2014 program[48],[49] […] The fitting spectra range for iron complexes was 400–700 nm while that for gallium complexes was 250–350 nm. pH values higher than 11.3 (outside the pH range in which electrode measurements are considered accurate) were neglected and re-calculated from the added KOH quantity (using “no pH” mode within the HypSpec2014 program). […] Metal affinities of compounds in this study were determined in competition with the metal hydrolysis species in a solution at a high pH (titrated up to pH 12.5). […]

Data set [5] is described as follows: Spectrophotometric determination of conditional formation constants, Fe^3+ complexes. The format is binding. The protocol: as §1, §2, §3
Where [6] appears, read: 0.1 M KCl electrolyte solution, intrinsic pKa for THP ligands (carbonyl group of HP unit), 25 °C, 0.1 M KCl, read-out: pKa1.
The mark [7] stands for this setting: M3+ + 2 L− ⇄ [ML2]+, repeated as control.
Setting [8] is: M3+ + 3 L− ⇄ [ML3], repeated as control.
Where [9] appears, read: M3+ + L− ⇄ [ML]2+, repeated as control.
Setting [10] is: –log[M^3+] at [M]total = 1 μM, [L]total = 10 μM, pH = 7.4.

Consider `O=C(O)CN(CCN(CC(=O)O)Cc1ccccc1O)Cc1ccccc1O` [HBED, N,N-bis(2-hydroxybenzyl)ethylenediamine-N,N-diacetic acid], for which the “log KFe” value in data set [1] is 36.74. In addition, in data set [2], the “log KGa” value is on record as 37.73.
Turning to `CC(=O)NC(CCC(=O)NCc1[nH]c(C)cc(=O)c1O)(CCC(=O)NCc1[nH]c(C)cc(=O)c1O)CCC(=O)NCc1[nH]c(C)cc(=O)c1O` [THP^H], the pKa in data set [3] (setting [6]) was 3.2; in data set [3] (0.1 M KCl electrolyte solution, intrinsic pKa for THP ligands (hydroxyl group), 25 °C, 0.1 M KCl, read-out: pKa2) it was 9.4; in data set [3] (0.1 M KCl electrolyte solution, pH 10, N^1–H deprotonation, estimated from spectral change of [Fe(THP^H)] in pH 10–12.5, read-out: pKa3), around 13.
For the molecule `CC(=O)NC(CCC(=O)NCc1c(O)c(=O)cc(C)n1C)(CCC(=O)NCc1c(O)c(=O)cc(C)n1C)CCC(=O)NCc1c(O)c(=O)cc(C)n1C` [THP^Me, tris(1,6-dimethyl-3-hydroxypyridin-4-one)], in the data set on mouse, the “In vivo ^68Ga binding and blood clearance after injection of the chelator” value is “able to bind 68Ga in vivo”.
With `Cc1c(O)c(=O)ccn1C` [Deferiprone], the pKa in data set [3] (setting [6]) worked out at 3.5; in data set [3] (intrinsic pKa for THP ligands (hydroxyl group), 25 °C, 0.1 M KCl, read-out: pKa2) it was 9.8. In addition, the “Log β [GaL]2+” value in data set [4] (setting [7]) amounted to 27.0; in data set [4] (setting [9]), 14.4. The “Log β [GaL3]” value in data set [4] (setting [8]) is on record as 37.4. In addition, the pGa in data set [4] (setting [10]) was 20.7. For the same molecule, the “Log β [FeL]2+” value in data set [5] (setting [7]) is on record as 27.5; in data set [5] (setting [9]), 15.0. Further, in data set [5] (setting [8]), the “Log β [FeL3]” value is on record as 37.5. The same molecule came in with a pFe in data set [5] (setting [10]) of 20.8.
